# Laboratory results published in PubChem BioAssay (NCI).
#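 Here, GI50 denotes the concentration required for 50% inhibition of growth. At the TGI there is no net growth.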
# Assays:
# Experiment in all cases: NCI anticancer screen, dose series, 384-well format
# [1] = tested on: NCI-H23 lung
# [2] = tested on: ACHN renal
# [3] = tested on: SW-620 colon
# [4] = tested on: BT-549 breast
# [5] = tested on: LOX IMVI melanoma
# [6] = tested on: CAKI-1 renal
# [7] = tested on: NCI-H460 NSCLC
# [8] = tested on: HL-60(TB) leukemia
# [9] = tested on: UACC-62 melanoma
# [10] = tested on: OVCAR-3 ovarian
# [11] = tested on: SK-OV-3 ovarian
# [12] = tested on: SF-295 CNS
# [13] = tested on: MDA-MB-435 melanoma
# [14] = tested on: SK-MEL-5 melanoma
# [15] = tested on: K-562 leukemia
# [16] = tested on: OVCAR-4 ovarian
# [17] = tested on: HCT-116 colon
# [18] = tested on: HS 578T breast
# [19] = tested on: MDA-MB-468 breast
# [20] = tested on: IGROV1 ovarian
# [21] = tested on: NCI-H522 lung
# [22] = tested on: EKVX NSCLC
# [23] = tested on: U251 glioblastoma
# [24] = tested on: SF-539 CNS
# [25] = tested on: SF-268 CNS
# [26] = tested on: HCT-15 colon
# [27] = tested on: SK-MEL-2 melanoma
# [28] = tested on: PC-3 prostate
# [29] = tested on: SK-MEL-28 melanoma
# [30] = tested on: M14 melanoma
# [31] = tested on: NCI-H226 lung
# [32] = tested on: COLO 205 colon
# [33] = tested on: OVCAR-5 ovarian
# [34] = tested on: MOLT-4 leukemia
# [35] = tested on: KM12 colon
# [36] = tested on: HT29 colon
# [37] = tested on: A498 renal
# [38] = tested on: SR leukemia
# [39] = tested on: NCI/ADR-RES ovarian
# [40] = tested on: CCRF-CEM leukemia
# [41] = tested on: MDA-MB-231 breast
# [42] = tested on: A549 NSCLC
# [43] = tested on: SN12C renal
# [44] = tested on: 786-0 renal
# [45] = tested on: OVCAR-8 ovarian
# [46] = tested on: TK-10 renal
# [47] = tested on: NCI-H322M lung
# [48] = tested on: HOP-92 NSCLC
# [49] = tested on: SNB-19 CNS
# [50] = tested on: HOP-62 NSCLC
# [51] = tested on: RXF 393 renal
# [52] = tested on: RPMI-8226 leukemia
# [53] = tested on: MCF7 breast
# [54] = tested on: SNB-75 CNS
# [55] = tested on: HCC-2998 colon
# [56] = tested on: UO-31 renal
# [57] = tested on: UACC-257 melanoma
# [58] = tested on: MALME-3M melanoma
compound,measurement,setting,value
C=CC(=O)Nc1cccc(C)c1Nc1ncc2cc(-c3c(Cl)c(OC)cc(OC)c3Cl)ccc2n1,GI50,[1],1840 nM
same,TGI,[1],5120 nM
same,GI50,[2],2930 nM
same,TGI,[2],23700 nM
same,GI50,[3],2050 nM
same,TGI,[3],6310 nM
same,GI50,[4],843 nM
same,TGI,[4],2440 nM
same,GI50,[5],1380 nM
same,TGI,[5],2740 nM
same,GI50,[6],2060 nM
same,TGI,[6],13600 nM
same,GI50,[7],717 nM
same,TGI,[7],2090 nM
same,GI50,[8],1100 nM
same,TGI,[8],2380 nM
same,GI50,[9],1750 nM
same,TGI,[9],4900 nM
same,GI50,[10],1100 nM
same,TGI,[10],2940 nM
same,GI50,[11],1690 nM
same,TGI,[11],17000 nM
same,GI50,[12],2770 nM
same,TGI,[12],10500 nM
same,GI50,[13],2170 nM
same,TGI,[13],5350 nM
same,GI50,[14],1460 nM
same,TGI,[14],3380 nM
same,GI50,[15],1390 nM
same,TGI,[15],3210 nM
same,GI50,[16],2780 nM
same,TGI,[16],14300 nM
same,GI50,[17],1730 nM
same,TGI,[17],3890 nM
same,GI50,[18],1260 nM
same,TGI,[18],3180 nM
same,GI50,[19],207 nM
same,TGI,[19],1600 nM
same,GI50,[20],2760 nM
same,TGI,[20],7890 nM
same,GI50,[21],1300 nM
same,TGI,[21],3010 nM
same,GI50,[22],1840 nM
same,TGI,[22],4550 nM
same,GI50,[23],1520 nM
same,TGI,[23],3740 nM
same,GI50,[24],615 nM
same,TGI,[24],1930 nM
same,GI50,[25],1550 nM
same,TGI,[25],3810 nM
same,GI50,[26],1940 nM
same,TGI,[26],4930 nM
same,GI50,[27],894 nM
same,TGI,[27],2200 nM
same,GI50,[28],1010 nM
same,TGI,[28],2600 nM
same,GI50,[29],2590 nM
same,TGI,[29],8300 nM
same,GI50,[30],3570 nM
same,TGI,[30],12900 nM
same,GI50,[31],1110 nM
same,TGI,[31],6080 nM
same,GI50,[32],2010 nM
same,TGI,[32],12200 nM
same,GI50,[33],4440 nM
same,TGI,[33],> 100000 nM
same,GI50,[34],736 nM
same,TGI,[34],2130 nM
same,GI50,[35],1930 nM
same,TGI,[35],5200 nM
same,GI50,[36],2440 nM
same,TGI,[36],9750 nM
same,GI50,[37],614 nM
same,TGI,[37],2030 nM
same,GI50,[38],348 nM
same,TGI,[38],1540 nM
same,GI50,[39],2030 nM
same,TGI,[39],4950 nM
same,GI50,[40],1340 nM
same,TGI,[40],2650 nM
same,GI50,[41],1890 nM
same,TGI,[41],5640 nM
same,GI50,[42],2120 nM
same,TGI,[42],7940 nM
same,GI50,[43],2330 nM
same,TGI,[43],7560 nM
same,GI50,[44],1290 nM
same,TGI,[44],5330 nM
same,GI50,[45],1480 nM
same,TGI,[45],3000 nM
same,GI50,[46],1980 nM
same,TGI,[46],5920 nM
same,GI50,[47],2630 nM
same,TGI,[47],9020 nM
same,GI50,[48],2250 nM
same,TGI,[48],6440 nM
same,GI50,[49],2000 nM
same,TGI,[49],7720 nM
same,GI50,[50],775 nM
same,TGI,[50],2340 nM
same,GI50,[51],573 nM
same,TGI,[51],1970 nM
same,GI50,[52],276 nM
same,TGI,[52],1260 nM
same,GI50,[53],1370 nM
same,TGI,[53],> 100000 nM
same,GI50,[54],1120 nM
same,TGI,[54],3800 nM
same,GI50,[55],2000 nM
same,TGI,[55],4830 nM
same,GI50,[56],2230 nM
same,TGI,[56],6740 nM
same,GI50,[57],1180 nM
same,TGI,[57],3350 nM
same,GI50,[58],2530 nM
same,TGI,[58],9940 nM
